Laboratory results reported in patent publication US20150225404A1, “PYRIDINE DERIVATIVE AND MEDICINE” (NIPPON SHINYAKU CO., LTD., priority 2012, published 2015).
Counter-ions that a name gives are not always drawn. Like-named read-outs stand apart in the source and are kept apart here.

Columns and labels:
[1] = tested on: male Slc:ICR mice; experiment: Action against formalin-induced pain behavior in mice; format: in vivo; details: Mus musculus, iv, 0.1 h, test substance 1 mg/kg intravenously, 6 minutes observation, read-out: Percent inhibition of pain-related behavior time (%)
Method: 4 to 6-week-old male Slc:ICR mice (available from Japan SLC, Inc.) were used. A medium or a test substance (1 mg/kg or 3 mg/kg) was intravenously administered to each mouse, and immediately thereafter, 20 μL of 1% or 5% formalin was subcutaneously administered to a right hind paw of the mouse. Thereafter, the mice were quickly put into an observation cage and measured for the total time (sec) of pain-related behavior (licking or biting behavior against the right hindlimb) during 6 minutes, and an average value of the pain-related behavior time of each group was calculated.
The intensity of an analgesic action of the test substance was evaluated in terms of percent inhibition (%) of pain-related behavior time which is calculated as {(A−B)/A×100}, wherein A is an average value of the pain-related behavior time of a medium-administered group, and B is an average value of the pain-related behavior time of a test substance-administered group.

[2] = tested on: male Slc:ICR mice; experiment: Action against pain-related behavior and micturition cycle in mice with cyclophosphamide (CP)-induced acute cystitis; format: in vivo; details: Mus musculus, iv, 0.25 h, CP 300 mg/kg i.p., 15 minutes observation; for inhibition in vivo at 3 mg/kg: test substance 3 mg/kg intravenously 3 hours after CP; for inhibition in vivo at 1 mg/kg: test substance 1 mg/kg intravenously 3 hours after CP
Method: An action of a test substance against visceral pain and frequent urination associated with cystitis, which was induced by intraperitoneal administration (20 mL/kg) of CP (300 mg/kg) to 4 to 5-week-old male Slc:ICR mice (available from Japan SLC, Inc.), was investigated. This experiment was performed according to a method described in European Journal of Pharmacology, 676 (2012), pp. 75-80.
Three hours after the administration of CP, a test substance (1 mg/kg or 3 mg/kg) was intravenously administered, and observation by visual inspection and video recording were performed for 15 minutes immediately thereafter. In the observation by visual inspection, four pain-related behaviors (eye opening, rounded back, leg dragging, and behavior during urination) were scored, each rated on a scale of 0-10, according to the following criteria.
Eye opening (normal: 0 point, sometimes closed or half-open eyes: 5 points, completely closed: 10 points)
Rounded back (normal: 0 point, sometimes crouched: 5 points, crouched at almost all times: 10 points)
Leg dragging (normal: 0 point, leg dragging: 10 points)
Behavior during urination (normal: 0 point, shaking hip in micturition: 10 points)
In addition, the video was played back, and the frequency of licking behavior around the abdomen as a pain-related behavior was scored, rated on a scale of 0-10, according to the following criteria.
Licking behavior around the abdomen (0 to 3 times: 0 point, 4 times to 10 times: 5 points, 11 times or more: 10 points)
Furthermore, the video was played back, and the frequency of urination (urination marks) on a filter paper was counted and taken as an index for micturition cycle.
An average value of the pain-related behavior score of each group (total score of the five items: 50 points at maximum) and an average value of the frequency of urination (urination marks) on the filter paper were determined.
The strength of an analgesic action of the test substance against the CP-induced visceral pain was evaluated in terms of percent inhibition (%) of pain-related behavior score which is calculated as {(A−B)/A×100}, wherein A is an average value of the pain-related behavior score of a medium-administered group, and B is an average value of the pain-related behavior score of a test substance-administered group.
In addition, the strength of a frequent urination inhibitory action of the test substance against the CP-induced frequent urination was evaluated in terms of percent inhibition (%) of the frequency of urination which is calculated as {(C−D)/C×100}, wherein C is an average value of the frequency of urination of a medium-administered group, and D is an average value of the frequency of urination of a test substance-administered group.

[3] = target: T1, human mGluR5 (Homo sapiens, UniProt P41594); experiment: Experiment for receptor function of mGluR5 (Ca2+-dependent fluorescence, FLIPR, CHO-K1 cells stably expressing human mGluR5); format: cell-based; details: L-glutamic acid 10 μM, Fluo-4 fluorescence
T1 construct: expressed in transfected cells
T1 sequence (P41594 21-1212): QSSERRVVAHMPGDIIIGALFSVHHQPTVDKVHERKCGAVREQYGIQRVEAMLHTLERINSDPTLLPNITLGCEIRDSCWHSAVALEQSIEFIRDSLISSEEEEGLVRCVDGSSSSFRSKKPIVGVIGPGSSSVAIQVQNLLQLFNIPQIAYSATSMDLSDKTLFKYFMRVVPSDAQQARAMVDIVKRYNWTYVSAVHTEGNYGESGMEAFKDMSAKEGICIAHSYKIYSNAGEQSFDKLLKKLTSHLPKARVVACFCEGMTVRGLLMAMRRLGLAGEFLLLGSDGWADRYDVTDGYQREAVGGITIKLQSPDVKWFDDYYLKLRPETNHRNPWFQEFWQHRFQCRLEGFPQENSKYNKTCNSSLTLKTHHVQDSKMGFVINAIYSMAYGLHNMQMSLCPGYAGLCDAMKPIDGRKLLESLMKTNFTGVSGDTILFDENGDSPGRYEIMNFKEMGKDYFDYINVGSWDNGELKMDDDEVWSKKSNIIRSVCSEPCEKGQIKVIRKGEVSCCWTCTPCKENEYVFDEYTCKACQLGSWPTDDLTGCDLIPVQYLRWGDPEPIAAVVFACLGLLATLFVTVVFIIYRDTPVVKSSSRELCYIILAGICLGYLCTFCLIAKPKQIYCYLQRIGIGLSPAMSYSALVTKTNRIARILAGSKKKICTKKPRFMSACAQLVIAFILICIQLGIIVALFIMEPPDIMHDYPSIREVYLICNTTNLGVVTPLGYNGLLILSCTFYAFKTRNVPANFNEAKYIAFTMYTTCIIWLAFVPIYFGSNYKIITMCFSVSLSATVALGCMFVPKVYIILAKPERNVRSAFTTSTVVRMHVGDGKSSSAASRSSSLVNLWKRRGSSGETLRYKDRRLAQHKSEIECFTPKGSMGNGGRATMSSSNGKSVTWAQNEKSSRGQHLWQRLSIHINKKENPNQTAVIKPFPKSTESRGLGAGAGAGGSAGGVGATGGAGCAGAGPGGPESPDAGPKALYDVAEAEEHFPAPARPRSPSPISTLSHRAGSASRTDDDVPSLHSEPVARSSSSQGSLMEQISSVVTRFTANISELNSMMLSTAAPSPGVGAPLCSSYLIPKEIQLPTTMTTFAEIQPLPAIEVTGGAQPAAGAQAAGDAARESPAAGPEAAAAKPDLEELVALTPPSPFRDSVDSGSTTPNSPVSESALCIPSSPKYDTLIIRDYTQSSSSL
Summary of the method: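 Fluo-4-loaded CHO-K1 cells pre-incubated 2 min with test substance, then stimulated with L-glutamic acid (final 10 μM) in HBSS, pH 7.4. FLIPR Ca2+ fluorescence normalized to glutamate alone (100%) and glutamate with 10 μM MPEP (0%); IC50 estimated by logistic fit.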

[4] = read-out: Percent inhibition of pain-related behavior score (%)
[5] = read-out: Percent inhibition of the frequency of urination (%)

SMILES | inhibition in vivo at 1 mg/kg ([1]; 5% formalin) [%] | inhibition in vivo at 3 mg/kg [2, 4] [%] | inhibition in vivo at 3 mg/kg [2, 5] [%] | IC50 [3] [nM] | inhibition in vivo at 1 mg/kg [2, 4] [%] | inhibition in vivo at 1 mg/kg [2, 5] [%] | inhibition in vivo at 1 mg/kg ([1]; 1% formalin) [%]
OCc1cncc(-c2cc(OCc3ccc(F)cn3)nc3c2CCCC3)n1 [Example 216, (6-{2-[(5-Fluoropyridin-2-yl)methoxy]-5,6,7,8-tetrahydroquinolin-4-yl}pyrazin-2-yl)methanol] | 41.2 | 28.2 | 30.1 | – | – | – | –
Cc1ncc(-c2cc(OCc3ncccc3F)nc3c2CCCC3)cn1 [Example 187, 2-[(3-Fluoropyridin-2-yl)methoxy]-4-(2-methylpyrimidin-5-yl)-5,6,7,8-tetrahydroquinoline] | 59.4 | – | – | 36 | 22.9 | 51.6 | –
N#Cc1ccc(-c2cc(OCc3ccc(F)cn3)nc3c2CCC3)cn1 [Example 9, 5-{2-[(5-Fluoropyridin-2-yl)methoxy]-6,7-dihydro-5H-cyclopenta[b]pyridin-4-yl}pyridine-2-carbonitrile] | 39.1 | – | – | – | 23.9 | 36.3 | –
N#Cc1ncc(-c2cc(OCc3ccccn3)nc3c2CCCC3)cn1 [Example 173, 5-[2-(Pyridin-2-ylmethoxy)-5,6,7,8-tetrahydroquinolin-4-yl]pyrimidine-2-carbonitrile hydrochloride] | 65.4 | 63.3 | 52.6 | 161 | – | – | –
Cc1cncc(-c2cc(OCc3ncccc3F)nc3c2CCCC3)n1 [Example 214, 2-[(3-Fluoropyridin-2-yl)methoxy]-4-(6-methylpyrazin-2-yl)-5,6,7,8-tetrahydroquinoline] | 55.3 | 44.2 | 25.3 | 131 | – | – | –
Fc1cnc(COc2cc(-c3cncnc3)c3c(n2)CCCC3)c(F)c1 [Example 277, 2-[(3,5-Difluoropyridin-2-yl)methoxy]-4-(pyrimidin-5-yl)-5,6,7,8-tetrahydroquinoline] | 60.9 | 40.4 | 24.8 | – | – | – | –
c1ccc(COc2cc(-c3cncnc3)c3c(n2)CCCCC3)nc1 [Example 233, 2-(Pyridin-2-ylmethoxy)-4-(pyrimidin-5-yl)-6,7,8,9-tetrahydro-5H-cyclohepta[b]pyridine hydrochloride] | – | – | – | 10.9 | – | – | 59.5
Fc1ncccc1-c1cc(OCc2ccccn2)nc2c1CCC2 [Example 2, 4-(2-Fluoropyridin-3-yl)-2-(pyridin-2-ylmethoxy)-6,7-dihydro-5H-cyclopenta[b]pyridine hydrochloride] | – | – | – | 5.26 | – | – | 47
Fc1cccnc1COc1cc(-c2cncnc2)c2c(n1)CCC2 [Example 26, 2-[(3-Fluoropyridin-2-yl)methoxy]-4-(pyrimidin-5-yl)-6,7-dihydro-5H-cyclopenta[b]pyridine] | – | 60.5 | 57.3 | 73.6 | – | – | 71.9
N#Cc1nccnc1-c1cc(OCc2ccccn2)nc2c1CCCC2 [Example 198, 3-[2-(Pyridin-2-ylmethoxy)-5,6,7,8-tetrahydroquinolin-4-yl]pyrazine-2-carbonitrile hydrochloride] | – | 40.4 | 37.6 | 56.3 | – | – | 24.7
OCc1ncc(-c2cc(OCc3ccccn3)nc3c2CCCC3)s1 [Example 226, {5-[2-(Pyridin-2-ylmethoxy)-5,6,7,8-tetrahydroquinolin-4-yl]-1,3-thiazol-2-yl}methanol hydrochloride] | – | – | – | 52.1 | – | – | 26.8
